Tested on: U2OS cells expressing HaloTag–H2B
Test: Dye loading kinetics
Type: cell-based
Settings: 200 nM
Procedure: U2OS cell culture, labeling, and fluorescence microscopy. U2OS cells (ATCC) were cultured in Dulbecco's modified Eagle medium (DMEM, phenol red-free; Life Technologies) supplemented with 10% (v/v) fetal bovine serum (FBS, Life Technologies), 1 mM GlutaMAX (Life Technologies) and maintained at 37 °C in a humidified 5% (v/v) CO2 environment. These cell lines undergo regular mycoplasma testing by the Janelia Cell Culture Facility. U2OS cells stably expressing an integrated HaloTag–histone H2B fusion protein (U2OS.H2B.HaloTag) were used for nuclear imaging and imaged 18–24 h post-plating. […]
Fixed cells were then washed
3× in 1× PBS and incubated with Hoechst 33342 (5µg/mL) for 15 min at 22 °C as a nuclear counterstain. Airyscan imaging was performed on a Zeiss LSM 980 with Airyscan 2 confocal microscope using a Plan APO 63×/1.4 oil DIC M27 objective. The same acquisition settings were used for all constructs labeled with 13HTL–16HTL. These single plane images were bulk processed in ZEN Blue (Zeiss) with automatic Airyscan settings.
Dye loading kinetics. Live U2OS.H2B.HaloTag stable cells were labeled over a time course of 0–4 h with 200 nM of biotin-JF549-HaloTag ligand (13HTL), biotin-JF608-HaloTag ligand (14HTL), biotin-JF646-HaloTag ligand (15HTL), or biotin-JF635-HaloTag ligand (16HTL) at 37 °C. Cells were […]
then washed 3× with dye-free media, fixed with 4% paraformaldehyde in 0.1 M phosphate buffer, pH 7.4 for 15 min at 37 °C. Confocal imaging was performed on a Leica SP8 with an HC PL APO CS2 20×/0.75 immersion objective using the tunable white light laser ( WLL) to excite dyes at their λabs in constant power mode. Fluorescence was quantified as the average integrated density of background corrected nuclear signals from confocal image stack projections analyzed in Fiji;14 n = 100 nuclear signals per compound. […]
(IB) consisting of KCl (0.18 M), ethylene glycol-bis(β-aminoethyl ether)-N,N,N′,N′-tetraacetic acid (EGTA; 1 mM), 3-(N-morpholino)propanesulfonic acid (MOPS; 5 mM); the pH was adjusted to pH = 7.35 using KOH(aq).15 StrepTactin Microbeads (IBA Lifesciences, 6-5510-050) were used as capture reagents as these beads had lowest amount of background observed in our hands. […]
The post-bead supernatant and wash volumes were pooled and spun at 15,000 g for 12 min. […] The affinity capture pulldown efficiency was monitored using in-gel fluorescence. The msGFP signal from HaloTag-TEV-4×GS-msGFP-mito after cell lysis and SDS-PAGE was analyzed, in-gel, using a Bio-Rad Chemidoc MP imager (Bio-Rad) through GFP fluorescence excitation and emission filters. Data were quantified by densitometry using Fiji.14 Capture efficiency was […]

Row | Structure (SMILES) | time to maximal intensity [h] | intracellular labeling over 4 h
1 | C[Si]1(C)C2=CC(=[N+]3CC(C(=O)NCCOCCOCCNC(=O)CCCC[C@@H]4SC[C@@H]5NC(=O)N[C@@H]54)C3)C=CC2=C(c2cc(C(=O)NCCOCCOCCCCCCCl)ccc2C(=O)[O-])c2ccc(N3CCC3)cc21 (stereo partly shown) [15HTL, biotin–JF646–HaloTag ligand] | 1 | 
2 | O=C(CCCCC1SCC2NC(=O)NC21)NCCOCCOCCNC(=O)C1C[N+](=c2ccc3c(-c4cc(C(=O)NCCOCCOCCCCCCCl)ccc4C(=O)[O-])c4ccc(N5CCC5)cc4oc-3c2)C1 (stereo not shown) [13HTL, biotin–JF549–HaloTag ligand] |  | negligible intracellular labeling
3 | C[Si]1(C)C2=CC(=[N+]3CC(F)(C(=O)NCCOCCOCCNC(=O)CCCC[C@@H]4SC[C@@H]5NC(=O)N[C@@H]54)C3)C=CC2=C(c2cc(C(=O)NCCOCCOCCCCCCCl)ccc2C(=O)[O-])c2ccc(N3CC(F)C3)cc21 (stereo partly shown) [16HTL, biotin–JF635–HaloTag ligand] | 1 | 
4 | CC1(C)C2=CC(=[N+]3CC(C(=O)NCCOCCOCCNC(=O)CCCC[C@@H]4SC[C@@H]5NC(=O)N[C@@H]54)C3)C=CC2=C(c2cc(C(=O)NCCOCCOCCCCCCCl)ccc2C(=O)[O-])c2ccc(N3CCC3)cc21 (stereo partly shown) [14HTL, biotin–JF608–HaloTag ligand] | 4 | 

Reference: paper PMC12595484, “Optimizing multifunctional fluorescent ligands for intracellular labeling” (Proceedings of the National Academy of Sciences of the …, 2025)
